# Results reported in US20220323443A1, “COMBINATION THERAPY FOR CANCER TREATMENT” (TAKEDA PHARMACEUTICAL COMPANY LIMITED, priority 2019, published 2022).
# Entries after “also recorded” stand apart in the source; their conditions may differ.
# Legend:
# [1] = system: A20 (Lymphoma); assay: In vivo combination study, syngeneic mouse tumor isograft model; conditions: note to Table 9
# [2] = system: repair of IR-induced DSBs in HeLa cells; assay: 53BP1 foci assay of irradiation-induced DNA double-strand breaks; assay type: cell-based, human
# Procedure: Human cervical adenocarcinoma HeLa cells were treated with or without Compound 1 treatment at 300 nM, followed by irradiation (IR) treatment at 4 Gy using an X-ray irradiator (MBR-1520R-3, Hitachi Power Solutions Co., Ltd., Ibaraki). Eight or forty-eight hours after IR treatment, the cells were fixed with 4% paraformaldehyde for the following immunofluorescent experiments. Foci formation of 53BP1 was used as an index of IR-induced DSBs. After permeabilization, the cells were incubated with anti-53BP1 antibody (2 μg/ml) for 60 min at 37° C., and then incubated with Alexa-594-conjugated secondary antibody for 30 min at 37° C. Images were captured with an Axiovert 200M microscope (Carl Zeiss).
# [3] = system: J558 mouse plasmacytoma tumors; assay: In vivo combination study, syngeneic mouse tumor isograft model; conditions: note to Table 9
# Procedure: (§1) To investigate in vivo antitumor activity of Compound 1 in combination with other agents, tests using Cell Derived Xenograft (CDX), Patient Derived Xenograft (PDX) and Syngeneic mouse tumor isograft model were conducted. Cells or Patient Derived Tumors were inoculated by one method of the following two methods (Method A and B) as shown Table 7.
# (§2) Method A; Cells were maintained in either immune deficient nude mice or immune competent mice by subcutaneous inoculation of tumor cells at various concentrations into respected mice. Method B: Patient Derived Tumor s were maintained in nude mice by subcutaneous inoculation of tumor pieces (approx. 2×2×2 mm) into nude mice. Mice with tumor size of approximately 50 mm^3 (e.g., 40-75 mm^3) for syngeneic mouse studies or 200 mm^3 (e.g., 110-270 mm^3) for xenograft studies were randomly assigned to dose groups on the day (Day 0) before start date of dosing.
# (§3) Compound 1 (crystalline form I) was suspended in 0.5 w/v % methylcellulose and administered orally to mice. Antibodies which administered in the experiment were described in Table 8.
# (§4) Tumor size was measured by caliper and tumor volume was estimated using the equation V=(LW^2)/2, where L and W are tumor length and width, respectively and reported in cubic millimeters.
# (§5) These values were compared across treatment groups to assess whether the differences in the trends over time were statistically significant. To compare pairs of treatment groups, the following mixed-effects linear regression model was fit to the data using the maximum likelihood method:
# (§6) For synergy analyses, the observed differences in the log tumor values were used to calculate AUC values for each animal. In instances when an animal in a treatment group was removed from the study, the last observed tumor value was carried forward through all subsequent time points. The AUC for the control, or vehicle, group was calculated using the predicted values from the pairwise models described above. We defined a measure of synergy as follows:
# (§7) where Ak and Bk are the k^th animal in the individual treatment groups and ABk is the k^th animal in combination treatment group. AUCcd is the model-predicted AUC for the control group and was treated as a constant with no variability. The standard error of the synergy score was calculated as the square root of the sum of squared standard errors across groups A, B, and AB. The degrees of freedom were estimated using the Welch-Satterthwaite equation. A hypothesis test was performed to determine if the synergy score differed from 0. P values were calculated by dividing the synergy score by its standard error and tested against a t-distribution (two-tailed) with the above-calculated degrees of freedom.
# (§8) The effect was classified into four different categories. It was considered synergistic if the synergy score was less than 0 and additive if the synergy score wasn't statistically different from 0. If the synergy score was greater than zero, but the mean AUC for the combination was lower than the lowest mean AUC among the two single agent treatments, then the combination was sub-additive. If the synergy score was greater than zero, and the mean AUC for the combination was greater than the mean AUC for at least one of the single agent treatments, then the combination was antagonistic.
# [4] = system: JC (Breast); assay: as above; conditions: note to Table 9
# Procedure: as §1, §2, §3, §4, §5, §6, §7, §8
# [5] = system: H22 (Hepatoma); assay: as above; conditions: note to Table 9; by note order: Anti-mCTLA-4 study in H22 (55 mm^3)
# Procedure: as §1, §2, §3, §4, §5, §6, §7, §8
# [6] = system: Panc02 (Pancreatic); assay: as above; conditions: note to Table 9
# Procedure: as §1, §2, §3, §4, §5, §6, §7, §8
# [7] = system: homologous recombination (HR) repair in 293T cells; assay: Homologous recombination (HR) repair assay, DR-GFP / I-SceI reporter, flow cytometry; assay type: cell-based, human; conditions: 300 nM Compound 1, 72 hours after transfection
# Procedure: The efficiency of homologous recombination (HR) was assessed using an I-SceI expression plasmid (I-SceI) and an I-SceI repair reporter plasmid (DR-GFP) composed of two differentially mutated GFP genes, one of which contained a unique I-SceI restriction site (FIG. 1A). The assay works through gene conversion repair of a double strand break caused by I-SceI digestion. DR-GFP plasmids repaired by homologous recombination express GFP. Human embryonic kidney 293T cells were transfected with either 5 μg of DR-GFP plus 10 μg of I-SceI in presence (300 nM) or absence of Compound 1. Seventy-two hours after transfection, the cells were fixed with 4% paraformaldehyde for 20 min at room temperature, and the number of GFP-expressing cells was assessed by flow cytometry (FIGS. 1B and 1C).
# [8] = system: CT26 Mouse syngeneic colon tumor model; assay: In vivo combination study, syngeneic mouse tumor isograft model; conditions: note to Table 9
# [9] = system: Twelve cancer cell lines (A549, BxPC3, Calu-1, COLO205, KYSE140, KYSE150, KYSE520, KYSE70, MIA PaCa-2, NCI-H292, PANC1, and RKO); assay: CRISPR-Cas9 knock-out screening for genes sensitizing to compound 1; assay type: cell-based; conditions: hit genes: ES<0 and p-value <0.05, control vs low dose compound 1, in more than three cancer cell lines
# [10] = system: B16F10 (Melanoma); assay: In vivo combination study, syngeneic mouse tumor isograft model; conditions: note to Table 9
compound,measurement,setting,value
"Cc1[nH]ncc1-c1cc2nc([C@@H]3CC4CCN3CC4)[nH]c(=O)c2s1 [Compound 1, 2-[(2S)-1-azabicyclo[2.2.2]oct-2-yl]-6-(3-methyl-1H-pyrazol-4-yl)thieno[3,2-d]pyrimidin-4(3H)-one]",CR per group,[1]; by note order: Anti-mPD-1 study in A20 (61 mm^3),1
same,CR per group,[1]; by note order: NKTR-214 + anti-mPD-1 study in A20 (61 mm^3),1
same,CR per group,[1]; by note order: NKTR-214 study in A20 (61 mm^3),1
same,repair of IR-induced DSBs,"[2]; 300 nM Compound 1 + IR 4 Gy, HeLa cells",delays repair of IR-induced DSBs; also recorded: delays repair of irradiation induced double-strand breaks (DSBs)
same,53BP1 foci-positive cells (≥10 foci/cell),"[2]; co-treated with IR 4 Gy and Compound 1 300 nM, 48 h after IR treatment, HeLa",still observed with high frequency
same,CR per group,[3]; by note order: Anti-mCTLA-4 study in J558 (30 mm^3),2
same,CR per group,[3]; by note order: Anti-mPD-1 study in J558 (30 mm^3),2
same,CR per group,[3]; by note order: Anti-mPD-L1 study in J558 (30 mm^3),2
same,CR per group,[4]; by note order: Anti-mCTLA-4 study in JC (60 mm^3),"0 CR in CTLA-4 group and 0 CR in Compound 1 group, and 0 CR in Compound 1/CTLA-4 combo group"
same,CR per group,[4]; by note order: Anti-mPD-1 study in JC (60 mm^3),"0 CR in PD-1 group and 0 CR in Compound 1 group, and 0 CR in Compound 1/PD-1 combo group"
same,CR per group,[5],0
same,CR per group,[6]; by note order: Anti-mPD-1 study in Panc02 (75 mm^3),"0 CR in PD-1 group and 0 CR in Compound 1 group, and 0 CR in Compound 1/PD-1 combo group"
same,CR per group,[6]; by note order: Gemcitabine study in Panc02 (75 mm^3),"0 CR in Gemcitabine group and 0 CR in Compound 1 group, and 0 CR in Compound 1/Gemcitabine combo group"
same,HR repair activity (GFP-expressing cells),[7],suppresses HR repair activity
same,CR per group,[8]; by note order: Anti-mCTLA-4 study in CT26 (40 mm^3),0
same,CR per group,[8]; by note order: Anti-mCTLA-4 study in CT26 (50 mm^3),0
same,CR per group,[8]; by note order: Anti-mPD-1 study in CT26 (40 mm^3),0
same,CR per group,[8]; by note order: Anti-mPD-1 study in CT26 (50 mm^3),0
same,CR per group,[8]; by note order: Anti-mPD-1 study in CT26 (64 mm^3),no CR
same,CR per group,[8]; by note order: NKTR-214 + anti-mPD-1 study in CT26 (64 mm^3),no CR
same,CR per group,[8]; by note order: NKTR-214 study in CT26 (64 mm^3),no CR
same,sensitivity of cancer cells with mutation or deletion of at least one sensitizing hit gene,[9],more sensitive
same,CR per group,[10]; by note order: Anti-mPD-1 study in B16F10 (67 mm^3),"0 CR in PD-1 group and 0 CR in Compound 1 group, and 0 CR in Compound 1/PD-1 combo group"
same,CR per group,[10]; by note order: NKTR-214 + anti-mPD-1 study in B16F10 (67 mm^3),"0 CR in NKTR-214 + PD-1 group, and 0 CR in Compound 1 group, and 0 CR in Compound 1/NKTR-214/PD-1 triple combo group"
same,CR per group,[10]; by note order: NKTR-214 study in B16F10 (67 mm^3),no CR
